Results published in patent EP0234113A1, “2,3-Dihydro-1H-phenalene-2-amino compounds as anti-psychotic drugs” (THE UPJOHN COMPANY, priority 1985, dated 1987).
Where “and” joins values, the source holds several entries; their conditions need not be identical. Identical values can stand only once. Entries after “also recorded” stand apart in the source; their conditions may differ. Like-named read-outs stand apart in the source and are kept apart here.

Columns and labels:
[1] = system: dopamine neurons; assay: Reversal of amphetamine depression of dopamine neuron firing rates; format: in vivo, rats
Procedure: Table 2. Dopamine neuron firing rates were recorded according to published procedures and drugs were injected intravenously in chloral hydrate anesthetized rats. A. Ability of drugs to reverse the depression in firing rates of dopamine neurons by 1 to 2 mg/kg amphetamine. The maximum effect is the maximum amount of the amphetamine effect that was reversed, even when doses were increased beyond dose causing maximum effect. […] B. Depression of dopamine neurons by full agonist apomorphine and partial agonists TDHL, (-)PPP and U-64,273A. Maximum effect is maximum depression that could be realized even after increasing doses beyong the dose causing maximum effect. For both A and B, the ED50 is the dose causing 50% of the respective antagonistic (A) or agonist (B) effect.

[2] = system: Locomotor activity; assay: Antagonism of apomorphine locomotor activity in reserpinized mouse; format: in vivo
Description: (§1) Table 3. […] A. Behavioral effects in the rat. B. Behavioral effects in the monkey. C. Doses required to antagonize the indicated behavioral effects of amphetamine. D. Doses required to antagonize the indicated behavioral effects of apomorphine.

[3] = system: 6-OH DA Turning; assay: Antagonism of amphetamine: 6-OH DA turning; format: in vivo; conditions: i.a. = inactive
Description: as §1

[4] = system: Serotonin metabolites; assay: Serotonin metabolites in rat brain; format: in vivo, Sprague-Dawley rat; conditions: percentage of control; 1 mg/kg haloperidol, 10 mg/kg of clozapine, 30 mg/kg U-64,273A
[5] = system: plasma prolactin; assay: Plasma prolactin; format: in vivo; conditions: cell marks this value (10), probably 10 mg/kg; Sprague-Dawley rat
[6] = system: Emesis; assay: Antagonism of apomorphine emesis; format: in vivo
Description: as §1

[7] = system: dopamine metabolites HVA, DOPAC, and 3MT; assay: Dopamine metabolites in rat brain; format: in vivo; conditions: percentage of control; 3 mg/kg of chlorpromazine, 30 mg/kg clozapine or U-64,273A; Sprague-Dawley rat
[8] = system: locomotor activity; assay: Antagonism of amphetamine: locomotor activity; format: in vivo; conditions: i.a. = inactive
Description: as §1

[9] = system: locomotor activity; assay: Antagonism of apomorphine locomotor activity in rat; format: in vivo; conditions: i.a. = inactive
Description: as §1

[10] = system: locomotor stimulation; assay: Locomotor stimulation in reserpinized mice, drug given by itself; format: in vivo
Description: Consistant with its having a minor amount of agonist activity, the overall behavioral effects of U-64,273A conform to that of a weak DA antagonist (Table 3). […] When given by itself, U-64,273A affected locomotor activities in rodents in a way resembling both DA auto-receptor and postsynaptic receptor agonists.

[11] = system: LSD; assay: LSD ligand binding, rat brain homogenates; conditions: 1μM, - indicates ligand was displaced
[12] = system: Discrimination; assay: Antagonism of apomorphine discrimination; format: in vivo; conditions: (p) = partial activity
Description: as §1

[13] = system: alpha-1; assay: Alpha-1 ligand binding, rat brain homogenates; conditions: 1μM, i.a. = inactive
[14] = system: lethal dose of d-amphetamine; assay: Antagonism of amphetamine toxicity; format: in vivo
Description: as §1

[15] = system: Catalepsy; assay: Catalepsy; conditions: rat; i.a. = inactive
Description: as §1

[16] = system: Conditioned Avoidance; assay: Conditioned avoidance; format: in vivo; conditions: rat; (p) = partial activity, i.a. = inactive
Description: as §1

[17] = system: Apomorphone-Induced Case Climbing; assay: Apomorphine antagonism (Apomorphine gnawing test; apomorphine-induced cage climbing); format: in vivo, Mouse; conditions: mouse
Description: The Effect on Body Temperature (Hypothermia) Test and the Antagonism of Apomorphone-Induced Case Climbing (ACC), (Apomorphine Gnawing Test) are described on page 1398 of the publication, Journal of Medicinal Chemistry, Vol. 22, No. 11, pp. 1390-1398, in an article entitled "6-Aryl-4H-s-triazolo[4,3-a][1,4]benzodiazepines....Action" by J. B. Hester, Jr., et al.
as §1

[18] = system: body temperature; assay: Hypothermia Test (effect on body temperature); format: in vivo, CF-1 male mice; conditions: either test: hypothermic or apomorphine antagonism
[19] = system: Stereotypy; assay: Antagonism of apomorphine stereotypy; format: in vivo; conditions: i.a. = inactive, listed as U-64273A
Description: as §1

[20] = system: Dopamine (3H-spiperone); assay: Receptor Binding Assay with 3H-spiperone (Dopamine Binding Assay), rat brain homogenate; conditions: 1μM; rat brain homogenates; - indicates ligand was displaced
Procedure: The Receptor Binding Assay test for antipsychotic acitvity, was conducted as follows:
A rat brain homogenate was prepared (1) by homogenizing a whole rat brain minus the cerebellum in 10 ml of 0.05M THAM-HC1, pH 7.4, using a Polytron at a setting of 7 for 30 sec. and centrifuging at 15,000xg for 10 min. The supernatant was discarded, the pellet resuspended in 10 ml of buffer using the Polytron for 10 sec., and the centrifugation repeated. The pellet was resuspended and diluted to 100 times the original tissue weight with buffer. Then 100 ml of the homogenate was diluted to 400 ml with buffer.
The test drug was weighed out in a scintillation vial in a 1-5 mg ammount. They were dissolved by adding 0.5 ml of N-N-dimethylformamide of (DMF) and then 0.05 ml of 1M acetic acid, and vortexed to solubilize the drug. Then 10 ml of deionized and filtered water was added to the required volume. All compounds were tested at a single concentration of 1 uM.
Samples were prepared for incubation using an ^3H-spiperone (antipsychotic).
Incubation was conducted at 30°C for 30 min. on a shaking water bath. Every 30 sec., 24 tubes were filled with 1 ml of homogenate and put into the bath (this is done every 3 min. until all tubes are in the bath). Upon completion of the incubation procedure, the samples are filtered and rinsed.
The punched filters are dropped into vials, which are in turn filled with ACS liquid scintillation fluid and capped and counted in a liquid scintillation counter. Counting data is recorded and analyzed.
Results are expressed as percent decrease from control.

[21] = system: dopamine neurons; assay: Depression of dopamine neuron firing rates by the drug alone; format: in vivo, rats
Procedure: Table 2. Dopamine neuron firing rates were recorded according to published procedures and drugs were injected intravenously in chloral hydrate anesthetized rats. A. Ability of drugs to reverse the depression in firing rates of dopamine neurons by 1 to 2 mg/kg amphetamine. The maximum effect is the maximum amount of the amphetamine effect that was reversed, even when doses were increased beyond dose causing maximum effect. An effect greater than 100% indicates excitation of the neuron beyond its' control rate whereas an effect less than 100% indicates partial agonist effects. B. Depression of dopamine neurons by full agonist apomorphine and partial agonists TDHL, (-)PPP and U-64,273A. Maximum effect is maximum depression that could be realized even after increasing doses beyong the dose causing maximum effect. For both A and B, the ED50 is the dose causing 50% of the respective antagonistic (A) or agonist (B) effect.

[22] = system: muscarinic; assay: Muscarinic ligand binding, rat brain homogenates; conditions: 1μM, - indicates ligand was displaced
[23] = system: alpha-2; assay: Alpha-2 ligand binding, rat brain homogenates; conditions: 1μM, - indicates ligand was displaced
[24] = dopamine neuron firing, Table 2

Work on `CNC1Cc2cccc3cccc(c23)C1` [U-64,273A, 2,3-dihydro-N-mono-methyl-lH-phenalen-2-amine] yielded an ED50 ([1]; Rattus norvegicus, Neuron, iv) of 0.005 mg/kg, an Emax ([1]; Rattus norvegicus, Neuron, iv, read-out: MAXIMUM EFFECT (per cent reversal)) of 69% and an antagonist share [1, 24] of 70%. The “reversal of amphetamine's depression of DA neuronal firing (in words)” value ([1]; intravenous, anesthetized rats) was “potent in reversing the effect of d-amphetamine on nigral DA neuronal firing; also recorded: not quite complete”, the “Locomotor activity, reserpinized mouse, 3 mg/kg (antag. of apomorphine)” value [2] was “antagonized apomorphine” and the “Locomotor activity, reserpinized mouse, 3 mg/kg (antag. of apomorphine)” value ([2]; listed as U-64273A) was 47% antag. For the same compound, the “6-OH DA Turning, rat, dose required to antagonize amphetamine” value [3] was “antagonized d-amphetamine”, the 5HIAA [4] was 76% and the 5HT [4] was 128%. The 5HTP [4] was 37%, the “Plasma Prolactin” value [5] was 1% and the “Dog Emesis, dose required to antagonize apomorphine” value [6] was “antagonized apomorphine”. For the same compound, the 3MT [7] was 50%, the DOPAC [7] was 80% and the “RAT locomotor activity, dose required to antagonize amphetamine” value [8] was “i.a”. The “Locomotor activity, rat, dose required to antagonize apomorphine” value [9] was “i.a”, the “locomotor stimulation in reserpinized mice” value [10] was “no locomotor stimulation” and the “LSD, percentage of ligand displaced” value [11] was -67.3%. The “Monkey Discrimination, dose required to antagonize apomorphine” value [12] was “antagonized apomorphine”, the “alpha-1, percentage of ligand displaced” value [13] was “i.a” and the “Mouse Toxicity, dose required to antagonize amphetamine” value [14] was “did not protect mice”. The “Catalepsy, active dose” value [15] was “i.a”, the “Conditioned Avoidance, active dose” value [16] was “suppressed conditioned avoidance behavior of rats with a limited efficacy” and the “Cage Climbing Mouse, dose required to antagonize apomorphine” value [17] was “antagonized apomorphine”. The “active in either the hypothermic or the apomorphine antogonism test” value [18] was “active”, the “Rat Stereotypy, dose required to antagonize apomorphine” value [19] was “i.a” and the “spiperone, percentage of ligand displaced” value [20] was “relatively weak and -46.2%”. For the same compound, the ED50 ([21]; Rattus norvegicus, Neuron, iv) was 0.07 mg/kg, the Emax ([21]; Rattus norvegicus, Neuron, iv, read-out: MAXIMUM EFFECT (per cent decrease)) was 30% and the agonist share [21, 24] was 30%. The “inhibition of DA neuronal firing when given alone (in words)” value ([21]; rat, in vivo) was “weakly inhibit”, the “muscarinic, percentage of ligand displaced” value [22] was -11.7% and the “alpha-2, percentage of ligand displaced” value [23] was -37.5%.
